# Laboratory results published in patent US8680159B2, “Bradykinin 1 receptor modulating compounds” (Gruenenthal GmbH, priority 2010, dated 2014).
# Biological target: T1, B1R receptor of the rat (CHO K1 cells stably transfected with the B1R gene of the rat) (Rattus norvegicus, UniProt P97583)
# T1 construct: expressed in transfected cells; host or cells: CHO K1 cells (Chinese hamster ovary), stably transfected
# T1 sequence (P97583 1-337): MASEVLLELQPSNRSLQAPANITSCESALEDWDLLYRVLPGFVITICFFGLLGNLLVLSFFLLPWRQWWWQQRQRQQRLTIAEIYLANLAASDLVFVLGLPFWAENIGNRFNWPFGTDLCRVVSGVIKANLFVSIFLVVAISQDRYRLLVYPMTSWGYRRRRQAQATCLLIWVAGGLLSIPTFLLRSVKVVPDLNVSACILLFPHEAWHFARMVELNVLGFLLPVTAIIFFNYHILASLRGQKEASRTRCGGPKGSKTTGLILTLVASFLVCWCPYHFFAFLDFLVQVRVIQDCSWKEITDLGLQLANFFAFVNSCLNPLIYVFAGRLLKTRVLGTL
# Test: Functional study on the bradykinin receptor 1 (B1R), Ca2+ fluorescence (Fluo-4) FLIPR/Novostar assay, rB1R cells
# Format: cell-based
# Conditions: 10 μM
# Procedure: The agonistic or antagonistic action of substances can be quantified on the bradykinin receptor 1 (B1R) of the species human and rat using ectopically expressing cell lines (CHO K1 cells) and with the aid of a Ca^2+-sensitive dye (Fluo-4) using a fluorescent imaging plate reader (FLIPR). The indication in % activation is based on the Ca^2+ signal after addition of Lys-Des-Arg^9-bradykinin (0.5 nM) or Des-Arg^9-bradykinin (100 nM). Antagonists lead to suppression of the Ca^2+ influx after the addition of the agonist. % Inhibition compared with the maximum achievable inhibition is indicated.
# The agonistic or antagonistic action of substances can be determined on the bradykinin receptor 1 (B1R) of the species human and rat using the following assay. According to this assay, the increase in intracellular Ca^2+ following administration of a B1R agonist is quantified with the aid of a Ca^2+-sensitive dye (Fluo-4 type, Molecular Probes Europe BV, Leiden, Netherlands) using a Fluorescent Imaging Plate Reader (FLIPR, Molecular Devices, Sunnyvale, USA) and/or using a Novostar (BMG Labtech GmbH, Offenburg, Germany).
# Chinese hamster ovary cells (CHO K1 cells) which have been stably transfected with the human B1R gene (hB1R cells) or with the B1R gene of the rat (rB1R cells) are used. For functional studies, the cells are plated out on black 96-well plates having a clear base (BD Biosciences, Heidelberg, Germany or Greiner, Frickenhausen, Germany) in a density of 20,000-35,000 cells/well. The cells are left overnight at 37° C. and with 5% CO2 in culture medium (hB1R cells: Nutrient Mixture Ham's F12, Gibco Invitrogen GmbH, Karlsruhe, Germany or DMEM, Sigma-Aldrich, Taufkirchen, Germany; rB1R cells: D-MEM/F12, Gibco Invitrogen GmbH, Karlsruhe, Germany), with 10 vol. % FBS (fetal bovine serum, Gibco Invitrogen GmbH, Karlsruhe, Germany or PAN Biotech GmbH, Aidenbach, Germany). On the following day, the cells are loaded for 60 minutes at 37° C. with 2.13 μM Fluo-4 (Molecular Probes Europe BV, Leiden, Netherlands) in HBSS buffer (Hank's buffered saline solution, Gibco Invitrogen GmbH, Karlsruhe, Germany) […] (Sigma-Aldrich, Taufkirchen, Germany) and 10 mM HEPES (Sigma-Aldrich, Taufkirchen, Germany). The plates are then washed twice with HBSS buffer, and HBSS buffer additionally containing 0.1% BSA (bovine serum albumin; Sigma-Aldrich, Taufkirchen, Germany), 5.6 mM glucose and 0.05% gelatin (Merck KGaA, Darmstadt, Germany) is added to the plates. After incubation for a further 20 minutes at room temperature, the plates are inserted into the FLIPR or Novostar for Ca^2+ measurement. Alternatively, washing is carried out with buffer A (15 mM HEPES, 80 mM NaCl, 5 mM KCl, 1.2 mM CaCl2, 0.7 mM MgSO4, 2 g/l glucose, 2.5 mM probenecid) followed by loading with buffer A with added 2.5 μM Fluo-4 and 0.025% Pluronic F127 (Sigma-Aldrich, Taufkirchen, Germany). The cells are then washed twice with buffer A and incubated for 30 minutes at room temperature with buffer A additionally containing 0.05% BSA and 0.05% gelatin and are then inserted into the FLIPR or Novostar for Ca^2+ measurement. The Ca^2+-dependent fluorescence is measured before and after the addition of substances (λex=488 nm, λem=540 nm). Quantification is carried out by measuring the highest fluorescence intensity (FC, fluorescence counts) over time.
# The FLIPR protocol consists of 2 substance additions, which are pipetted in the FLIPR. In the case of measurements using the Novostar, only the second substance addition is pipetted in the device. Both devices measure the fluorescence intensity over time. Test substances (10 μM) are first pipetted onto the cells and the intracellular Ca^2+ increase is compared with the control (hB1R: Lys-Des-Arg^9-bradykinin>=50 nM; rB1R: Des-Arg^9-bradykinin>=1 μM). This gives the % activation, based on the Ca^2+ signal after addition of Lys-Des-Arg^9-bradykinin (>=50 nM) or Des-Arg^9-bradykinin (>=1 μM). […]
row,Compound,% Inhibition (r-B1R) at 10 μM [%]
1,"CN(C(=O)c1ccc2c(c1)C(NC(=O)c1c(Cl)cccc1C(F)(F)F)CCC2)C1CCN(c2ccncc2)CC1 (stereo not shown) [CC_H-249, 8-[[2-Chloro-6-(trifluoromethyl)-benzoyl]amino]-N-methyl-N-(1-pyridin-4-yl-piperidin-4-yl)-5,6,7,8-tetrahydro-naphthalene-2-carboxylic acid amide]",110

# Same assay, conditions: CHO-K1, 10 μM, read-out: % Inhibition (r-B1R) at 10 μM
row,Compound,inhibition at 10 µM [%]
1,"CN(C(=O)c1ccc2c(c1)C(NC(=O)c1cc(C(F)(F)F)ccc1Cl)CCC2)C1CCN(c2ccncc2)CC1 (stereo not shown) [CC_H-247, 8-[[2-Chloro-5-(trifluoromethyl)-benzoyl]amino]-N-methyl-N-(1-pyridin-4-yl-piperidin-4-yl)-5,6,7,8-tetrahydro-naphthalene-2-carboxylic acid amide]",112
2,"Cc1ccc(F)c(C(=O)NC2CCCc3ccc(C(=O)N(C)C4CCN(c5ccncc5)CC4)cc32)c1Cl (stereo not shown) [CC_H-248, 8-[(2-Chloro-6-fluoro-3-methyl-benzoyl)amino]-N-methyl-N-(1-pyridin-4-yl-piperidin-4-yl)-5,6,7,8-tetrahydro-naphthalene-2-carboxylic acid amide]",111
3,"CN(C(=O)c1ccc2c(c1)C(NC(=O)C1CC1)CCC2)C1CCN(c2ccncc2)CC1 (stereo not shown) [CC_H-250, 8-(Cyclopropanecarbonylamino)-N-methyl-N-(1-pyridin-4-yl-piperidin-4-yl)-5,6,7,8-tetrahydro-naphthalene-2-carboxylic acid amide]",103
4,"CN(C(=O)c1ccc2c(c1)C(NC(=O)CC(C)(C)C)CCC2)C1CCN(c2ccncc2)CC1 (stereo not shown) [CC_H-251, 8-(3,3-Dimethyl-butanoylamino)-N-methyl-N-(1-pyridin-4-yl-piperidin-4-yl)-5,6,7,8-tetrahydro-naphthalene-2-carboxylic acid amide]",111
5,"COCC(=O)NC1CCCc2ccc(C(=O)N(C)C3CCN(c4ccncc4)CC3)cc21 (stereo not shown) [CC_H-252, 8-[(2-Methoxy-acetyl)amino]-N-methyl-N-(1-pyridin-4-yl-piperidin-4-yl)-5,6,7,8-tetrahydro-naphthalene-2-carboxylic acid amide]",107
6,"CC(=O)NC1CCCc2ccc(C(=O)N(C)C3CCN(c4ccncc4)CC3)cc21 (stereo not shown) [CC_H-253, 8-Acetylamino-N-methyl-N-(1-pyridin-4-yl-piperidin-4-yl)-5,6,7,8-tetrahydro-naphthalene-2-carboxylic acid amide]",110
7,"CN(C(=O)c1ccc2c(c1)C(NC(=O)c1cccc(C(F)(F)F)c1Cl)CCC2)C1CCN(c2ccncc2)CC1 (stereo not shown) [CC_H-254, 8-[[2-Chloro-3-(trifluoromethyl)-benzoyl]amino]-N-methyl-N-(1-pyridin-4-yl-piperidin-4-yl)-5,6,7,8-tetrahydro-naphthalene-2-carboxylic acid amide]",111
8,"CN(C(=O)c1ccc2c(c1)C(NC(=O)Nc1ccccc1Cl)CCC2)C1CCN(c2ccncc2)CC1 (stereo not shown) [CC_H-255, 8-[[(2-Chlorophenyl)-carbamoyl]amino]-N-methyl-N-(1-pyridin-4-yl-piperidin-4-yl)-5,6,7,8-tetrahydro-naphthalene-2-carboxylic acid amide]",104
9,"CN(C(=O)c1ccc2c(c1)C(NC(=O)Nc1cccc(Cl)c1)CCC2)C1CCN(c2ccncc2)CC1 (stereo not shown) [CC_H-256, 8-[[(3-Chlorophenyl)-carbamoyl]amino]-N-methyl-N-(1-pyridin-4-yl-piperidin-4-yl)-5,6,7,8-tetrahydro-naphthalene-2-carboxylic acid amide]",96
10,"CN(C(=O)c1ccc2c(c1)C(NC(=O)Nc1c(Cl)cccc1Cl)CCC2)C1CCN(c2ccncc2)CC1 (stereo not shown) [CC_H-257, 8-[[(2,6-Dichloro-phenyl)-carbamoyl]amino]-N-methyl-N-(1-pyridin-4-yl-piperidin-4-yl)-5,6,7,8-tetrahydro-naphthalene-2-carboxylic acid amide]",107
11,"CN(C(=O)c1ccc2c(c1)C(NC(=O)Nc1cccc(Cl)c1Cl)CCC2)C1CCN(c2ccncc2)CC1 (stereo not shown) [CC_H-258, 8-[[(2,3-Dichloro-phenyl)-carbamoyl]amino]-N-methyl-N-(1-pyridin-4-yl-piperidin-4-yl)-5,6,7,8-tetrahydro-naphthalene-2-carboxylic acid amide]",106
12,"CN(C(=O)c1ccc2c(c1)C(NC(=O)Nc1cc(Cl)ccc1Cl)CCC2)C1CCN(c2ccncc2)CC1 (stereo not shown) [CC_H-259, 8-[[(2,5-Dichloro-phenyl)-carbamoyl]amino]-N-methyl-N-(1-pyridin-4-yl-piperidin-4-yl)-5,6,7,8-tetrahydro-naphthalene-2-carboxylic acid amide]",100
13,"CN(C(=O)c1ccc2c(c1)C(NC(=O)Nc1cc(Cl)cc(Cl)c1)CCC2)C1CCN(c2ccncc2)CC1 (stereo not shown) [CC_H-260, 8-[[(3,5-Dichloro-phenyl)-carbamoyl]amino]-N-methyl-N-(1-pyridin-4-yl-piperidin-4-yl)-5,6,7,8-tetrahydro-naphthalene-2-carboxylic acid amide]",61
14,"CN(C(=O)c1ccc2c(c1)C(NC(=O)Nc1cc(C(F)(F)F)ccc1Cl)CCC2)C1CCN(c2ccncc2)CC1 (stereo not shown) [CC_H-261, 8-[[[2-Chloro-5-(trifluoromethyl)-phenyl]-carbamoyl]amino]-N-methyl-N-(1-pyridin-4-yl-piperidin-4-yl)-5,6,7,8-tetrahydro-naphthalene-2-carboxylic acid amide]",103
15,"CN(C(=O)c1ccc2c(c1)C(NC(=O)Nc1ccc(Cl)cc1Cl)CCC2)C1CCN(c2ccncc2)CC1 (stereo not shown) [CC_H-262, 8-[[(2,4-Dichlorophenyl)-carbamoyl]amino]-N-methyl-N-(1-pyridin-4-yl-piperidin-4-yl)-5,6,7,8-tetrahydro-naphthalene-2-carboxylic acid amide]",82
16,"CN(C(=O)c1ccc2c(c1)C(NC(=O)Nc1ccc(F)c(Cl)c1)CCC2)C1CCN(c2ccncc2)CC1 (stereo not shown) [CC_H-265, 8-[[(3-Chloro-4-fluoro-phenyl)-carbamoyl]amino]-N-methyl-N-(1-pyridin-4-yl-piperidin-4-yl)-5,6,7,8-tetrahydro-naphthalene-2-carboxylic acid amide]",105
17,"Cc1ccc(NC(=O)NC2CCCc3ccc(C(=O)N(C)C4CCN(c5ccncc5)CC4)cc32)c(C)c1 (stereo not shown) [CC_H-266, 8-[[(2,4-Dimethyl-phenyl)-carbamoyl]amino]-N-methyl-N-(1-pyridin-4-yl-piperidin-4-yl)-5,6,7,8-tetrahydro-naphthalene-2-carboxylic acid amide]",63
18,"CN(C(=O)NC1CCCc2ccc(C(=O)N(C)C3CCN(c4ccncc4)CC3)cc21)c1ccccc1Cl (stereo not shown) [CC_H-268, 8-[[(2-Chlorophenyl)-methyl-carbamoyl]amino]-N-methyl-N-(1-pyridin-4-yl-piperidin-4-yl)-5,6,7,8-tetrahydro-naphthalene-2-carboxylic acid amide]",110
